Test results: patent US20200190592A1, “PME-1 AS A BIOMARKER TO PREDICT AND DIAGNOSE AN INCREASED RISK OF ENDOMETRIAL CANCER AND GENE SILENCING OF PME-1 TO INHIBIT EPITHELIAL TO MESENCHYMAL TRANSITION” (Medical Diagnostic Laboratories, L.L.C., priority 2018, published 2020)
“Also recorded” adds a separate entry of the source.

What was measured:
Format in all cases: cell-based, human
[1] = tested on: PME-1; test: Western blot of PME-1 protein in RL95-2 cells; conditions: GAPDH loading control, listed as shRNA #2
Text: We prepared RL95-2 cell lines expressing empty vector (control), over-expressing PME-1 (+PME-1), or expressing shRNA against PPME1, the gene that codes for PME-1 protein (−PME-1). Using these cells, we confirmed the appropriate level of PME-1 via real-time RT-PCR (data not shown) and Western blot analysis (FIG. 8). GAPDH was used as a loading control.
We also prepared two different shRNAs targeted against PME-1.
Lentivirus was produced in HEK293T cell lines with pLKO shRN vectors (Thermo Scientific, cat. no. RHS4533; Waltham, Mass.) and pCDH-CuO-GFP-Puro vectors (System Biosciences, Inc., cat. no. QM513B-1; Mountain View, Calif.) with pPACKH1 packaging plasmid (System Biosciences, Inc., cat, no. LV050A-1). shRNA sequences are in the Table 2. Lentivirus was collected and concentrated with Peg-IT concentrating solution (System Biosciences, Inc.). 5×10^6 ifu/ml lentivirus was added to cell cultures with growth media and 8 μg/ml PolyBrene (Sigma Aldrich). Media was changed to full growth media after 24 hrs and to selection media containing antibiotic after 48 hrs (5 μg/ml puromycin) (Invivogen) for 10 days.
15 μg of protein was used for western analysis. […]

[2] = tested on: DcR2; test: Senescence assay (Western for DcR2); conditions: RL95-2 lysates, GAPDH loading control
Procedure: We next analyzed cell lysates taken from RL95-2 cells that expressed either empty vector (Control), overexpressed PME-1 (+PME-1) or expressed shRNA against PME-1 (−PME-1) for DcR2 protein.
15 μg of protein was used for western analysis. PME-1 antibody (Santa Cruz) and COXIV (Cell Signaling Technologies) were used for detection of proteins and the blots were developed using chemiluminescence (Pierce ECL Western Blotting Substrate—Thermo Scientific) on the GE ImageQuant LAS 4000. For analysis of Akt, ERK, and β-catenin signaling in tissue culture, western analyses were completed as follows. RL95-2 cells stably infected with lentivirus expressing constructs were selected with puromycin (Invivogen). The cells were incubated with either 50 μM Akt inhibitor (LY 294002, Cell Signaling Technologies) or 40 μM ERK inhibitor (V0126, Cell Signaling Technologies) for 1-2 hours at 37° C. 1.5× Laemelli buffer (0.5 M Tris pH6.8, […], 10% sodium dodecyl sulfate, 100 mM EDTA) was used to prepare cell lysates. 20 μg of protein was used for western analysis. Primary antibodies used were: P-Akt (Ser473), P-Akt (Thr308), pan-Akt, P-ERK (Thr202/204), total ERK (Cell Signaling Technologies), PME-1 (Santa Cruz), phospho-β-catenin (Ser45, Cell Signaling Technologies), phospho-β-catenin (Ser33/37/Thr41, Cell Signaling Technologies), β-catenin (Abcam), DcR2 (Abcam), and GAPDH (Abcam). […]

[3] = tested on: RL95-2 cells; test: BrDU incorporation assay; conditions: compared to scrambled shRNA control set to 100%
Procedure: To confirm our foci formation data that altering PME-1 levels in endometrial cancer cells affect their rate of cell proliferation, we conducted a BrDU incorporation assay. BrDU is incorporated into newly synthesized DNA and can be detected with antibodies; thus, increased BrDU incorporation correlates with an increased level of proliferation.
The BrDU Incorporation assay was completed with RL95-2 cell lines in media supplemented with 2.5 μg/ml puromycin. Cells were plated at 0.5*10^4 cells per well into a 96 well dish with 0% FBS and allowed to settle for 24 hours. The assay was completed as per kit instructions (Roche, Cell Proliferation ELISA, BrdU colorimetric cat. #11647229001). Briefly, 10 uM BrdU was added to the cells, 24 hours later cells were fixed and denatured with FixDenat from the kit and allowed to incubate with anti-BrdU antibody for up to two hours. Following the incubation and addition of the kit substrate, absorbances were read using FluoStar Galaxy.

[4] = tested on: phospho-ERK; test: Western analysis of phospho-ERK in RL95-2 cells; conditions: compared to control cells; total ERK as reference
Procedure: When PME-1 was depleted with shRNA, there was a decrease in phospho-ERK compared to control cells.
15 μg of protein was used for western analysis. PME-1 antibody (Santa Cruz) and COXIV (Cell Signaling Technologies) were used for detection of proteins and the blots were developed using chemiluminescence (Pierce ECL Western Blotting Substrate—Thermo Scientific) on the GE ImageQuant LAS 4000. For analysis of Akt, ERK, and β-catenin signaling in tissue culture, western analyses were completed as follows. RL95-2 cells stably infected with lentivirus expressing constructs were selected with puromycin (Invivogen). The cells were incubated with either 50 μM Akt inhibitor (LY 294002, Cell Signaling Technologies) or 40 μM ERK inhibitor (V0126, Cell Signaling Technologies) for 1-2 hours at 37° C. 1.5× Laemelli buffer (0.5 M Tris pH6.8, […], 10% sodium dodecyl sulfate, 100 mM EDTA) was used to prepare cell lysates. 20 μg of protein was used for western analysis. Primary antibodies used were: P-Akt (Ser473), P-Akt (Thr308), pan-Akt, P-ERK (Thr202/204), total ERK (Cell Signaling Technologies), PME-1 (Santa Cruz), phospho-β-catenin (Ser45, Cell Signaling Technologies), phospho-β-catenin (Ser33/37/Thr41, Cell Signaling Technologies), β-catenin (Abcam), DcR2 (Abcam), and GAPDH (Abcam). All experiments were repeated several times with similar results.

[5] = tested on: WNT3 and WNT3A; test: qRT-PCR of WNT3 and WNT3A expression in RL95-2 cells; conditions: RL95-2, normalized to 18S
Procedure: (§1) Using RL95-2 endometrial cancer cells, we overexpressed PME-1 (FIG. 21A) or depleted PME-1 with shRNA (FIG. 21B) and confirmed that PME-1 was appropriately expressed.
(§2) Total RNA was extracted with Qiagen RNAEasy kit from RL95-2 cells. cDNA was synthesized using 500 ng-1 μg of RNA and SuperScript VILO c-DNA mix (Life Technologies). Taqman probes and PCR-mix were purchased from Life Technologies. All samples were run in triplicates. Results are representative of three independent experiments in which genes of interest were normalized to the house-keeping gene, 18S or GAPDH, where fold-change was calculated using the ddCt method.

[6] = tested on: RL95-2 cells; test: Foci forming assay in RL95-2 cells; conditions: RL95-2, PME-1 depleted, compared to control cells
Procedure: A foci forming assay was used in this study to monitor cell growth. Equal amounts of cells were plated and they were allowed to grow for a determined period of time (see Materials and Methods section for details). The foci that were formed were then stained with the crystal violet dye. Cells were washed […] with PBS prior to visualization. Numbers of foci were counted and results were averaged among different experiments.
To determine if the loss of active PME-1 accounted for the observed decrease in foci formation, we first treated RL95-2 cells with siRNA against the 3′-UTR of PPME1 to decrease endogenous levels of PME-1. […] The S156A PME-1 mutant is not capable of demethylating its target, PP2A.
1,000 cells were plated in a six well tissue culture dish in selection media (to include 5 μg/ml puromycin) (InvivoGen). Cells were allowed to adhere and grow in a 5% CO2, 37° C. incubator for 10 to 14 days. Media was replaced every fourth day. Cells were stained with 1% crystal violet (Sigma Aldrich) for five minutes and rinsed with PBS. Colonies were counted and data is presented as the percentage of change compared to the control. All Experiments were repeated at least three times.

[7] = tested on: SFRP1; test: qRT-PCR of SFRP1 expression in RL95-2 cells; conditions: RL95-2, normalized to 18S
Procedure: as §1, §2

With “shPPME1 no. 2: shRNA targeting PPME1, SEQ ID NO: 2: GCAGCGATTATTAGTAGAGTT, bp 289-309; used for all subsequent experiments (guide GCAGCGATTATTAGTAGAGTT; listed as Homo sapiens)” the “PME-1 levels via Western blot analysis” value [1] was “significantly decreased; also recorded: best depletion”, the “senescent marker protein DcR2” value [2] was “increase” and the “decrease in BrDU incorporation” value [3] was 40%. The phospho-ERK [4] was “decrease”, the “WNT3 and WNT3A expression” value [5] was “significantly decreased” and the decrease in foci [6] was 75%. The SFRP1 expression [7] was “significantly increased” and the SFRP1 expression ([7]; listed as shRNA (SEQ ID NO: 2)) was “significant increase”.
